Test results published in the CheMixHub viscosity set.

Test: xn = mol fraction of the nth substance listed

BrC(Br)Br + C=Cc1ccccc1
viscosity [mPa·s], 101.33 kPa
Conditions	x2 = 0.1005	x2 = 0.2006	x2 = 0.2981	x2 = 0.3985	x2 = 0.506	x2 = 0.6032	x2 = 0.7008	x2 = 0.7712	x2 = 0.8948
298.15 K	1.834	1.697	1.562	1.426	1.284	1.163	1.054	0.9849	0.8704
303.15 K	1.714	1.586	1.462	1.332	1.198	1.084	0.9817	0.9179	0.8129
308.15 K	1.603	1.481	1.361	1.24	1.117	1.01	0.9176	0.8595	0.762

CCCCCCCl + C=C(C)C(=O)OC
303.15 K, 101 kPa
Conditions	viscosity [mPa·s]
x2 = 0.1343	0.6215
x2 = 0.1947	0.6053
x2 = 0.3625	0.5729
x2 = 0.4962	0.5511
x2 = 0.6029	0.5375
x2 = 0.8144	0.5199
x2 = 0.8988	0.5152

O=S(=O)([O-])c1ccccc1.[Na+] + O
viscosity [mPa·s], 101 kPa
Conditions	x1 = 9e-05	x1 = 0.00018	x1 = 0.0009	x1 = 0.0018	x1 = 0.00448	x1 = 0.00893	x1 = 0.0133	x1 = 0.0177
298.15 K	0.898	0.899	0.915	0.932	0.98	1.073	1.17	1.273
318.15 K	0.598	0.599	0.609	0.619	0.648	0.705	0.762	0.825

BrC(Br)Br + ClCCCCCl
viscosity [mPa·s], 101 kPa
Conditions	x1 = 0.0978	x1 = 0.197	x1 = 0.2974	x1 = 0.3963	x1 = 0.496	x1 = 0.5975	x1 = 0.6963	x1 = 0.7994	x1 = 0.8972
298.15 K	1.382	1.455	1.538	1.607	1.677	1.748	1.813	1.868	1.924
303.15 K	1.278	1.346	1.423	1.489	1.556	1.624	1.686	1.743	1.803
308.15 K	1.184	1.247	1.32	1.381	1.446	1.507	1.573	1.625	1.687
313.15 K	1.099	1.158	1.232	1.281	1.34	1.401	1.462	1.52	1.578
